Earlier results as cited in patent publication US20180116920A1, “MULTI-STEP PROCESS FOR NO PRODUCTION” (BSN medical GmbH, priority 2015, published 2018).

Assays:
[1] = generally assumed

O=C1O[C@H]([C@@H](O)CO)C(O)=C1O [ascorbic acid]
standard redox potential (at pH 7 and 25° C.): −0.04 V

N[C@@H](CS)C(=O)O [cysteine]
redox potential (cysteine-cystine, 25° C., pH 7.0): −0.2 Volt

nitrogen monoxide
maximum solubility of NO in aqueous solution [1]: approximately 2 mM
